Assay results as given in patent US20160374979A1, “Method of Treatment of Alopecia with Monoterpenoids” (CELLMID LIMITED, priority 2013, published 2016).
Entries after “also recorded” stand apart in the source; their conditions may differ.

What was measured:
[1] = system: Alkaline Phosphatase (ALP) activity in dermal papilla (DP) cells treated with FGF-5; test: Dermal papilla alkaline phosphatase (DP-ALP) cell assay; type: cell-based, human; conditions: for relative ALP activity of DP cells treated FGF-5: 0.005-0.5 mg/ml, GSK3 inhibitor IX + rhFGF-5 1 μg/mL, 3 days, absorbance 490 nm
Experimental: Dermal papilla cells were prepared according to the methods described in WO2013/105417, Briefly, hairs were pulled from the scalp of a healthy subject showing normal non-alopecia hair growth using tweezers. Hair follicles with dermal papilla were thus obtained at a rate of approximately one for every 100 hairs pulled. The hair follicles with dermal papilla were separated from the hair using tweezers and transferred into a saline for inspection under a microscope. Under a microscope, each dermal papilla was isolated from a respective hair follicle using tweezers and a scalpel. Approximately 2000 isolated dermal papilla cells were then transferred to a 35 mm cell culture dish together 1-2 ml of cell culture medium, after which time the cells were cultured at 37° C. to produce a primary cell culture of dermal papilla. The cell culture medium consisted of approximately 90% DMEM medium, 10% fetal bovine serum (final concentration: 10%), FGF2 (final, concentration: 10 ng/ml), and penicillin-streptornycin solution (final concentration: 1 μg/ml) for every 2 mL of medium. Cell culture conditions were maintained for more than 14 days until dermal papilla cells covered approximately 40% of the area of the 35 mm culture dish, at which time subcultures were performed. To prepare the subcultures, the cell culture medium was removed from the 35 mm culture dish and the adherent cells were washed once with 2 ml of saline (at room temperature). 1 ml Trypsin-EDTA solution (0.1% trypsin and 0.02% EDTA) was then added to the 35 mm culture dish and left to stand for 4 minutes at 37° C. Dissociated dermal papilla cells were then recovered from the 35 mm dish, and seeded to a new 100 mm dish, and cultured in media under the same conditions as for the primary cell culture described above.
When the dermal papilla cells covered approximately 70-80% of the area of each 100 mm culture dish, the sub-confluent cells were subcultured as before. The process was repeated until sufficient cells were obtained to screen compounds of interest.
Once sufficient DP cells were obtained, the cells were harvested to provide a cell suspension. To harvest the DP cells, the cell culture medium was removed from the culture dish, and the adherent cells were washed with saline at room temperature. Trypsin-EDTA solution was then added under conditions described supra to dissociate the cells from the cell culture dish. Approximately 5×10^5 of the dissociated cells were resuspended in 500 ml of assay medium containing 445 ml of DMEM medium, 50 ml of 10% fetal calf serum and 5 ml of antibiotic.
Aliquots of the cell suspension were transferred to the wells of cell culture dishes, and a single monoterpenoid listed in Example 1 e.g., (−)-4-terpinen-4-ol, (+)-4-terpinen-4-ol. (±)-4-terpinen-4-ol, α-terpineol, nonanal, linalyl acetate or piperitone, is added to each well at a concentration of 0.005 (mg/ml) or 0.01 (mg/ml) or 0.05 (mg/ml) or 0.1 (mg/ml) or 0.5 (mg/ml). Cell suspensions were transferred to wells of a further cell culture dish to which minoxidil was then added at a concentration of 0.005 (mg/ml) or 0.01 (mg/ml) or 0.05 (mg/ml) or 0.1 (mg/ml) or 0.5 (mg/ml). A Wnt/β-catenin pathway activation agent e.g., Wnt3a or GSK-3 Inhibitor IX, as added to each of the cell cultures to produce an “activated cell culture”. Control cell cultures containing the same monoterpenoid compound or minoxodil, but lacking the Wnt/β-cinenin pathway activation agent, were processed in parallel. These activated and control cell cultures were divided further into duplicate cell culture samples either lacking FGF-5 or to which recombinant human FGF-5 (rhFGF-5; 1 μg/mL)) was added.
The cell culture samples were each cultured at 37° C. for 3 days under atmosphere containing less than 5% CO2. […]

[2] = system: murine vibrissae follicles; test: Hair shaft elongation of murine vibrissae follicles cultured ex vivo; set-up: species or system C3H mice; conditions: piperitone 0.1 mg/mL in culture medium
From the text: Five week old male C3H mice (supplied by Japan SLC, lnc., Hamamatsu, Japan) were used for isolation of vibrissae follicles. The mice were sacrificed and the vibrissae follicles were carefully dissected from the mystacial pad. Briefly, the mystacial pad was cut into two sides (left and right). The skin cut, picked at the edge by tweezers, was washed in (i) 70% Ethanol for 30 seconds, (ii) PBS for 10 seconds, (iii) fresh PBS for 10 seconds, and (iv) another fresh PBS for 10 seconds. This washing process was repeated twice. After washing, the skin cut was placed inverted to expose the vibrissae follicles in Dulbecco's Modified Eagle's Medium (DMEM; Wako Pure Chemical, Osaka, Japan) at 37° C. Under a dissecting microscope, the surrounding tissue was removed from the follicles using tweezers, carefully so as not to destroy the structure of the follicles. The isolated follicles were then placed immediately into Williams' E medium (Life Technologies, Carlsbad, USA).
From the isolated mouse vibrissae follicles, only early anagen follicles were selected and randomized into groups with 30 follicles per group. […]
Follicles in each of the treatment and control groups were incubated at 37° C. at 5% CO2 for 8 days, while exchanging the respective culture mediums every 2 days. From Day 1, elongation of hair shafts was observed and the elongation length was measured for each hair shaft every 24 hours from Day 1 to Day 8 using a micrometer under microscope. […]
Follicles in each of the treatment and control groups were incubated at 37° C. at 5% CO2 for 5 days, while exchanging the culture medium every 3 days. From Day 1, elongation of hair shafts was observed and the elongation length was measured for each hair shaft every 24 hours from Day 1 to Day 5. using a micrometer under microscope. […]

CC1=CC(=O)C(C(C)C)CC1 (centres unmarked) [Piperitone, 3-Methyl-6-(propan-2-yl)cyclohex-2-en-1-one]
relative ALP activity of DP cells treated FGF-5 [1]: increased relative ALP activity | relative ALP activity of DP cells treated FGF-5 ([1]; listed as piperitone): high alkaline phosphatase activity; also recorded: higher alkaline phosphatase activity in dermal papillae than a racemic mixture of terpinen-4-al or (+)-Terpinen-4-ol | FGF-5-inhibitory activity ranked from most active to least active by DP-ALP assay ([1]; rank order): Piperitone>(−)-terpinen-4-ol>(±)-Terpinen-4β-Terpineol> (+)-Terpinen-4-ol > Linalyl Acetate | hair shaft elongation over time ([2]; 5 days (FIG. 22)): continued steadily and consistently throughout the culture period | hair growth ([2]; versus control): increased hair growth
